Reference: ChEMBL document CHEMBL1201862, “PubChem BioAssay data set” (2004)
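Cells were grown in 96-well plates and exposed to each compound for 48 hours at five concentrations; endpoints were interpolated linearly between bracketing concentrations, or set to the highest concentration if not reached. GI50 is the concentration that inhibits growth by half.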 Calls of active or inactive are those of the source. Cut-off read from the data, not from the text of the source: active = GI50 up to about 1.1 µM and inactive = higher.

Experiments:
Assay in all cases: NCI-60 cell line screen, 48 h
[1] = tested on: DLD-1
[2] = tested on: HCT-116
[3] = tested on: HOP-62
[4] = tested on: K562
[5] = tested on: MOLT-4
[6] = tested on: OVCAR-3
[7] = tested on: OVCAR-8
[8] = tested on: SF-539
[9] = tested on: SK-MEL-28
[10] = tested on: SK-MEL-2
[11] = tested on: SN12C
[12] = tested on: SNB-75
[13] = tested on: UACC-62
[14] = tested on: UO-31
[15] = tested on: BT-549
[16] = tested on: DU-145
[17] = tested on: MCF7
[18] = tested on: MDA-MB-435
[19] = tested on: MDA-N

Measured: GI50

O=C(O)c1c[nH]c2c(ccc3ncccc32)c1=O
inactive: [1] > 100 µM | [2] > 100 µM | [3] > 100 µM | [4] > 100 µM | [5] > 100 µM | [6] > 100 µM | [7] > 100 µM | [8] > 100 µM | [9] > 100 µM | [10] > 100 µM | [11] > 100 µM | [12] > 100 µM | [13] > 100 µM | [14] > 100 µM

COc1cc(C(N)=O)c(OC)c(OC)c1OC
inactive: [1] > 100 µM | [2] > 100 µM | [3] > 100 µM | [4] > 100 µM | [5] > 100 µM | [6] > 100 µM | [7] > 100 µM | [8] > 100 µM | [9] > 100 µM | [10] > 100 µM | [11] > 100 µM | [12] 69.8 µM | [13] > 100 µM | [14] > 100 µM

CCOC(=O)C(=O)Nc1c(C(C)C)cccc1C(C)C
inactive: [1] > 100 µM | [2] > 100 µM | [3] > 100 µM | [5] > 100 µM | [6] > 100 µM | [7] > 100 µM | [8] > 100 µM | [9] > 100 µM | [10] > 100 µM | [11] > 100 µM | [12] > 100 µM | [13] > 100 µM | [14] > 100 µM

COc1c(Cl)cc(NC(=S)C#N)cc1Cl
inactive: [15] 16.6 µM | [1] 31.7 µM | [16] 35.6 µM | [2] 16.4 µM | [3] 24.5 µM | [4] > 52.2 µM | [17] 24.4 µM | [18] 25 µM | [19] 25.5 µM | [5] 32.9 µM | [6] 20.8 µM | [7] 28.4 µM | [8] 23.8 µM | [9] 26.7 µM | [10] 23.4 µM | [11] 20.1 µM | [12] 22.5 µM | [13] 15.1 µM | [14] 22.3 µM

CN(C)CC1CCCC/C1=N/O (stereo not given)
inactive: [1] > 100 µM | [2] > 100 µM | [3] > 100 µM | [4] > 100 µM | [5] > 100 µM | [6] > 100 µM | [7] > 100 µM | [8] > 100 µM | [9] > 100 µM | [10] > 100 µM | [11] > 100 µM | [12] > 100 µM | [13] > 100 µM | [14] > 100 µM

O=C(NS(=O)(=O)c1ccccc1)C(Cc1ccccc1)C(Cc1ccccc1)C(=O)NS(=O)(=O)c1ccccc1 (stereo not given)
inactive: [1] > 100 µM | [2] > 100 µM | [3] > 100 µM | [4] > 100 µM | [5] > 100 µM | [6] > 100 µM | [7] > 100 µM | [8] > 100 µM | [9] > 100 µM | [10] > 100 µM | [11] > 100 µM | [12] > 100 µM | [13] > 100 µM | [14] > 100 µM

NC(=S)N/N=C1\C(=O)N(c2cccc([N+](=O)[O-])c2)C(=O)C1C(=O)Nc1cccc([N+](=O)[O-])c1 (stereo not given)
inactive: [1] > 100 µM | [2] > 100 µM | [3] > 100 µM | [4] > 100 µM | [5] > 100 µM | [6] > 100 µM | [7] > 100 µM | [8] > 100 µM | [9] > 100 µM | [10] > 100 µM | [11] > 100 µM | [12] > 100 µM | [13] > 100 µM | [14] > 100 µM

O=C(Cc1nc2ccccc2c(=O)n1-c1ccccc1Cl)c1ccncc1
inactive: [1] > 100 µM | [2] > 100 µM | [3] > 100 µM | [4] > 100 µM | [5] > 100 µM | [6] > 100 µM | [7] > 100 µM | [8] > 100 µM | [9] > 100 µM | [10] > 100 µM | [11] > 100 µM | [12] 15 µM | [13] > 100 µM | [14] > 100 µM

Cc1ccc(S(=O)(=O)C2c3nc4ccccc4cc3-c3nc4ccccc4nc32)cc1 (stereo not given)
inactive: [1] > 100 µM | [2] > 100 µM | [3] > 100 µM | [4] > 100 µM | [5] > 100 µM | [6] > 100 µM | [7] > 100 µM | [8] > 100 µM | [9] > 100 µM | [10] > 100 µM | [11] > 100 µM | [12] 53.8 µM | [13] > 100 µM | [14] > 100 µM

Nc1c(S(=O)(=O)c2ccc(Cl)cc2)c2nc3ccccc3nc2n2ccnc12
inactive: [1] > 100 µM | [2] 44.3 µM | [4] > 100 µM | [5] > 100 µM | [6] > 100 µM | [7] 48.4 µM | [8] 17.4 µM | [9] > 100 µM | [10] > 100 µM | [11] > 100 µM | [12] 31.6 µM | [14] > 100 µM

CC1OC(OC2C(OC(=O)[C@]34CCC(C)(C)CC3C3=CCC5[C@@]6(C)C[C@H](O)[C@H](OC7OC(COC8OC(CO)C(O)C(O)C8O)C(O)C(O)C7O)[C@@](C)(C(=O)O)C6CC[C@@]5(C)C3(C)CC4)OCC(O)C2O)C(O)C(O)C1OC1OCC(O)C(O)C1O (stereo not given in full)
inactive: [1] > 100 µM | [3] > 100 µM | [4] > 100 µM | [5] > 100 µM | [6] > 100 µM | [7] > 100 µM | [8] > 100 µM | [9] > 100 µM | [10] > 100 µM | [11] > 100 µM | [12] > 100 µM | [13] > 100 µM | [14] > 100 µM

O=[N+]([O-])c1cc(I)cc(/C=N/NS(=O)(=O)c2ccc(F)cc2)c1O
inactive: [1] 36.5 µM | [2] 22.9 µM | [3] 26.2 µM | [4] 21.6 µM | [5] 24.7 µM | [6] 19 µM | [7] 23.6 µM | [8] 27.1 µM | [9] 29.4 µM | [10] 18 µM | [11] 22.9 µM | [12] 25 µM | [13] 20.3 µM | [14] 26.2 µM

CCC1C(=O)OCc2c1cc1n(c2=O)CCC12OCCO2 (stereo not given)
inactive: [1] > 100 µM | [2] > 100 µM | [3] > 100 µM | [4] > 100 µM | [5] > 100 µM | [7] > 100 µM | [8] > 100 µM | [9] > 100 µM | [10] > 100 µM | [11] > 100 µM | [12] > 100 µM | [13] > 100 µM | [14] > 100 µM

CC(=O)CCn1ncc(Cl)c(Cl)c1=O
inactive: [1] 11.2 µM | [2] 14.5 µM | [3] 19.7 µM | [4] 3.51 µM | [5] 20.6 µM | [6] 13.7 µM | [7] 23.2 µM | [8] 22.2 µM | [9] 13.8 µM | [10] 14.2 µM | [11] 14.3 µM | [12] 34.4 µM | [13] 17.2 µM | [14] 20 µM

O=[N+]([O-])c1ccc(-c2csc(=[N+]3CCCCC3)s2)cc1
inactive: [1] 18.3 µM | [2] 28.3 µM | [3] 3.1 µM | [4] 9.71 µM | [5] 5.38 µM | [6] 13.9 µM | [7] 3.48 µM | [8] 19.8 µM | [9] 36.5 µM | [10] 24.9 µM | [11] 4.48 µM | [12] 3.61 µM | [13] 34.4 µM | [14] > 68.1 µM
